{"source": "patent US12233066B2", "about": "“Combinations of inhibitors of influenza virus replication” (COCRYSTAL PHARMA, INC., priority 2018, dated 2025)", "key": {"[1]": {"test_system": "Influenza virus A/PR/8/34 (H1N1)", "assay": "Cytopathic effect (CPE) assay of two-drug combinations in MDCK cells, MacSynergy II analysis", "format": "cell-based"}, "influenza B": {"test_system": "influenza B", "assay": "Antiviral activity of the combinations against influenza B", "format": "cell-based", "settings": "combination with Compound 1"}, "[2]": {"settings": "combination with Compound 1, A/PR/8/34 (H1N1) in MDCK cells, 0.125-8x EC50 checkerboard, MacSynergy II"}}, "note": "Where two headings read alike, the source gives them in different places."}
{"smiles": "O=C1c2c(O)c(=O)ccn2N([C@@H]2c3ccccc3SCc3c2ccc(F)c3F)[C@@H]2COCCN12", "note": "[Baloxavir, baloxavir]", "values": [{"measurement": "Synergy volume (95%)", "setting": "[1]", "value": 285.84}, {"measurement": "Antagonism volume (95%)", "setting": "[1]; [2]", "value": "−12.28"}]}
{"smiles": "CCC(CC)O[C@@H]1C=C(C(=O)O)C[C@H](N)[C@H]1NC(C)=O", "note": "[Oseltamivir acid, oseltamivir acid]", "values": [{"measurement": "Antagonism volume (95%)", "setting": "[1]; [2]", "value": "−9.19"}, {"measurement": "Synergy volume (95%)", "setting": "[1]; [2]", "value": 269.37}, {"measurement": "Combination effect", "setting": "[1]; combination with Compound 1, A/PR/8/34 (H1N1) in MDCK cells, MacSynergy II", "value": "Strong synergism"}, {"measurement": "Synergistic effect in influenza antiviral CPE assays", "setting": "[1]; combination with Compound 1, IFV A/PR/8/34 (H1N1)", "value": "strong synergistic effect"}, {"measurement": "Antiviral activity against influenza B", "setting": "influenza B", "value": "exhibit antiviral activity"}]}
{"smiles": "NC(=O)c1nc(F)c[nH]c1=O", "note": "[Favipiravir, favipiravir]", "values": [{"measurement": "Combination effect", "setting": "[1]", "value": "Strong synergism"}, {"measurement": "Synergistic effect in influenza antiviral CPE assays", "setting": "[1]", "value": "strong synergistic effect"}, {"measurement": "Synergy volume (95%)", "setting": "[1]", "value": 413.85}, {"measurement": "Antagonism volume (95%)", "setting": "[1]; [2]", "value": "−3.15"}, {"measurement": "Antiviral activity against influenza B", "setting": "influenza B", "value": "exhibit antiviral activity"}]}
